Experimental data as given in PMC6684654 (Nature Communications, 2019).
Values after ≈ are worked out from the molar mass of the structure shown. Like-named read-outs stand apart in the source and are kept apart here. One block for each compound: values may come before it.

Assays:
Type in all cases: cell-based
[1] = test system: NDM-1 E. coli XJ141015; assay: MIC, broth microdilution; conditions: Escherichia coli, 16 h
Text: (§1) MIC values were identified through microdilution in sterilized 96-well polypropylene microtiter plates according to the broth microdilution guideline of the Clinical and Laboratory Standards Institute[30]. The test medium was Mueller–Hinton broth (MHB), and the strain concentrations were adjusted to 5 × 10^5 CFU/mL.

[2] = test system: NDM-1 K. pneumoniae XJ155017; assay: MIC, broth microdilution; conditions: Klebsiella pneumoniae, 16 h
Text: as §1

[3] = test system: NDM-1 K. pneumoniae XJ155020; assay: MIC, broth microdilution; conditions: Klebsiella pneumoniae, 16 h
Text: as §1

[4] = test system: K. pneumoniae ATCC13883; assay: MIC, broth microdilution; conditions: Klebsiella pneumoniae
Text: as §1

[5] = test system: E. coli ATCC25922; assay: MIC, broth microdilution; conditions: Escherichia coli
Text: as §1

[6] = test system: NDM-1 K. pneumoniae XJ155018; assay: MIC, broth microdilution; conditions: Klebsiella pneumoniae, 16 h
Text: as §1

[7] = test system: NDM-1 E. coli XJ141026; assay: MIC, broth microdilution; conditions: Escherichia coli, 16 h
Text: as §1

[8] = test system: E. coli ATCC35218; assay: MIC, broth microdilution; conditions: Escherichia coli
Text: as §1

[9] = test system: NDM-1 E. coli XJ141047; assay: MIC, broth microdilution; conditions: Escherichia coli, 16 h
Text: as §1

[10] = test system: NDM-1 K. pneumoniae XJ155019; assay: MIC, broth microdilution; conditions: Klebsiella pneumoniae, 16 h
Text: as §1

[11] = test system: NDM-1 E. coli XJ141015; assay: Antibiotic susceptibility (MIC), automated identification system; conditions: Supplementary Table 1; for MIC: Escherichia coli
Text: (§2) Clinical isolate strains were identified and screened by the Phoenix 100 automated bacterial identification system to rapidly detect antimicrobial resistance. Total DNA was extracted by the TIANamp Bacteria DNA Kit according to the manufacturer’s protocol. The presence of blaNDM-1 was confirmed using a diagnostic kit for NDM-1 (Puruikang Bio Inc., Shenzhen, China) based on fluorescent quantitative polymerase chain reaction assay. According to the instruction, Ct values of less than 37 were considered positive.

[12] = test system: NDM-1 K. pneumoniae XJ155017; assay: as above; conditions: Supplementary Table 2; for MIC: Klebsiella pneumoniae
Text: as §2

[13] = test system: NDM-1 K. pneumoniae XJ155020; assay: as above; conditions: Supplementary Table 2; for MIC: Klebsiella pneumoniae
Text: as §2

[14] = test system: K. pneumoniae ATCC13883; assay: as above; conditions: Supplementary Table 2; for MIC: Klebsiella pneumoniae, ATCC13883
Text: as §2

[15] = test system: E. coli ATCC25922; assay: as above; conditions: Supplementary Table 1; for MIC: Escherichia coli, ATCC25922
Text: as §2

[16] = test system: NDM-1 K. pneumoniae XJ155018; assay: as above; conditions: Supplementary Table 2; for MIC: Klebsiella pneumoniae
Text: as §2

[17] = test system: NDM-1 E. coli XJ141026; assay: as above; conditions: Supplementary Table 1; for MIC: Escherichia coli
Text: as §2

[18] = test system: NDM-1 E. coli XJ141047; assay: as above; conditions: Supplementary Table 1; for MIC: Escherichia coli
Text: as §2

[19] = test system: NDM-1 K. pneumoniae XJ155019; assay: as above; conditions: Supplementary Table 2; for MIC: Klebsiella pneumoniae
Text: as §2

[20] = test system: NDM-1 E. coli XJ141015; assay: Kirby Bauer disc diffusion
Text: (§3) Supplementary Table 1. Identification and antibiotic susceptibility of NDM-1-producing E. coli strains. […]
(§4) Cefoperazone/ sul bact am KB — — 7 (R) 7 (R) 7 (R)
(§5) Nitrofurantoi n KB — — 14 (R) 17 (R) 19 (S) […]
(§6) R, resistant; S, sensitive; M IC , minimum inhibitory concentration; KB, Kirb y Bauer disc diffusion method.
(§7) The unit of M IC is “ μ g/ mL”. The unit of KB is “ mm” .

[21] = test system: NDM-1 E. coli XJ141026; assay: Kirby Bauer disc diffusion
Text: as §3, §4, §5, §6, §7

[22] = test system: NDM-1 E. coli XJ141047; assay: Kirby Bauer disc diffusion; conditions: for inhibition zone diameter: Escherichia coli, read-out: KB disc diffusion
Text: as §3, §4, §5, §6, §7

[23] = test system: NDM-1 K. pneumoniae XJ155017; assay: Kirby Bauer disc diffusion; conditions: for inhibition zone diameter (Kirby-Bauer disc diffusion): Klebsiella pneumoniae, read-out: KB disc diffusion
Text: (§8) Supplementary Ta b l e 2. Identification and anti biotic susceptibility of NDM-1-producing K. pneumonia strains.
(§9) Antibiotics NDM-1 NDM-1 NDM-1 NDM-1 […]
(§10) Cefoperazone/ sul bact am KB 32 (S) 7 (R) 7 (R) 7 (R) 7 (R)
(§11) Nitrofurantoi n KB 21 (S) 7 (R) 9 (R) 10 (R) 9 (R) […]
(§12) R, resistant; S, sensitive; M IC , minimum inhibitory concentration; KB, Kirb y Baue r disc diffusion method .
(§13) The unit of M IC is “μg/mL”. The unit of KB is “mm”.

[24] = test system: NDM-1 K. pneumoniae XJ155020; assay: Kirby Bauer disc diffusion; conditions: for disc diffusion inhibition zone diameter: Klebsiella pneumoniae, read-out: KB disc diffusion
Text: as §8, §9, §10, §11, §12, §13

[25] = test system: K. pneumoniae ATCC13883; assay: Kirby Bauer disc diffusion; conditions: for inhibition zone diameter: Klebsiella pneumoniae, ATCC13883, read-out: KB disc diffusion
Text: as §8, §9, §10, §11, §12, §13

[26] = test system: NDM-1 K. pneumoniae XJ155018; assay: Kirby Bauer disc diffusion; conditions: for inhibition zone diameter: Klebsiella pneumoniae, read-out: KB disc diffusion
Text: as §8, §9, §10, §11, §12, §13

[27] = test system: NDM-1 K. pneumoniae XJ155019; assay: Kirby Bauer disc diffusion
Text: as §8, §9, §10, §11, §12, §13

[28] = ATCC13883, MHB, 5 × 10^5 CFU/mL, 16 h, 37 °C, read-out: MIC
[29] = ATCC25922, MHB, 5 × 10^5 CFU/mL, 16 h, 37 °C, read-out: MIC
[30] = ATCC35218, MHB, 5 × 10^5 CFU/mL, 16 h, 37 °C, read-out: MIC
[31] = MHB, 5 × 10^5 CFU/mL, 37 °C, read-out: MIC

SMILES: CO/N=C(\C(=O)N[C@@H]1C(=O)N2C(C(=O)O)=C(COC(C)=O)CS[C@H]12)c1csc(N)n1 [Cefotaxime]
MIC [1]: > 256 µg/mL
MIC [2]: > 256 µg/mL
MIC [3]: > 256 µg/mL
MIC ([4]; ATCC13883, 16 h): < 0.125 µg/mL
MIC ([5]; ATCC25922, 16 h): < 0.125 µg/mL
MIC [6]: > 256 µg/mL
MIC [7]: > 256 µg/mL
MIC ([8]; ATCC35218, 16 h): < 0.125 µg/mL
MIC [9]: > 256 µg/mL
MIC [10]: > 256 µg/mL
MIC [11]: > 32 µg/mL
susceptibility class (MIC) [11]: R
MIC [12]: > 32 µg/mL
susceptibility class (MIC) [12]: R
MIC [13]: > 32 µg/mL
susceptibility class (MIC) [13]: R
MIC [14]: ≤ 1 µg/mL
susceptibility class (MIC) [14]: S
MIC [15]: ≤ 1 µg/mL
susceptibility class (MIC) [15]: S
MIC [16]: > 32 µg/mL
susceptibility class (MIC) [16]: R
MIC [17]: > 32 µg/mL
susceptibility class (MIC) [17]: R
MIC [18]: > 32 µg/mL
susceptibility class (MIC) [18]: R
MIC [19]: > 32 µg/mL
susceptibility class (MIC) [19]: R

SMILES: CC(C)(O/N=C(\C(=O)N[C@@H]1C(=O)N2C(C(=O)[O-])=C(C[n+]3ccccc3)CS[C@H]12)c1csc(N)n1)C(=O)O [Ceftazidime]
MIC [1]: > 256 µg/mL
MIC [2]: > 256 µg/mL
MIC [3]: > 256 µg/mL
MIC [4, 28]: < 0.125 µg/mL
MIC [5, 29]: < 0.125 µg/mL
MIC [6]: > 256 µg/mL
MIC [7]: > 256 µg/mL
MIC [8, 30]: < 0.125 µg/mL
MIC [9]: > 256 µg/mL
MIC [10]: > 256 µg/mL
MIC [11]: > 16 µg/mL
susceptibility class (MIC) [11]: R
MIC [12]: > 16 µg/mL
susceptibility class (MIC) [12]: R
MIC [13]: > 16 µg/mL
susceptibility class (MIC) [13]: R
MIC [14]: ≤ 1 µg/mL
susceptibility class (MIC) [14]: S
MIC [15]: ≤ 1 µg/mL
susceptibility class (MIC) [15]: S
MIC [16]: > 16 µg/mL
susceptibility class (MIC) [16]: R
MIC [17]: > 16 µg/mL
susceptibility class (MIC) [17]: R
MIC [18]: > 16 µg/mL
susceptibility class (MIC) [18]: R
MIC [19]: > 16 µg/mL
susceptibility class (MIC) [19]: R

SMILES: CO/N=C(\C(=O)N[C@@H]1C(=O)N2C(C(=O)O)=C(COC(N)=O)CS[C@H]12)c1ccco1 [Cefuroxime]
susceptibility class (KB) [20]: R
susceptibility class (KB) [21]: R
susceptibility class (KB) [22]: R
inhibition zone diameter [22]: 7 mM
susceptibility class (KB) [23]: R
inhibition zone diameter (Kirby-Bauer disc diffusion) [23]: 7 mM
susceptibility class (KB) [24]: R
disc diffusion inhibition zone diameter [24]: 7 mM
susceptibility class (KB) [25]: S
inhibition zone diameter [25]: 23 mM
susceptibility class (KB) [26]: R
inhibition zone diameter [26]: 7 mM
susceptibility class (KB) [27]: R

SMILES: O=C1CN(/N=C/c2ccc([N+](=O)[O-])o2)C(=O)N1 [Nitrofurantoin]
susceptibility class (KB) [20]: R
susceptibility class (KB) [21]: R
Kb ([21]; Escherichia coli, read-out: KB disc diffusion): 17 mM
susceptibility class (KB) [22]: S
inhibition zone diameter [22]: 19 mM
susceptibility class (KB) [23]: R
inhibition zone diameter (Kirby-Bauer disc diffusion) [23]: 7 mM
susceptibility class (KB) [24]: R
disc diffusion inhibition zone diameter [24]: 9 mM
susceptibility class (KB) [25]: S
inhibition zone diameter [25]: 21 mM
susceptibility class (KB) [26]: R
inhibition zone diameter [26]: 9 mM
susceptibility class (KB) [27]: R
Kb ([27]; Klebsiella pneumoniae, read-out: KB disc diffusion): 10 mM

SMILES: Cc1onc(-c2ccccc2)c1C(=O)N[C@@H]1C(=O)N2[C@@H]1SC(C)(C)[C@@H]2C(=O)O [Oxacillin]
MIC [1, 31]: > 256 µg/mL
MIC [2, 31]: > 256 µg/mL
MIC [3, 31]: > 256 µg/mL
MIC [4, 28]: 64 µg/mL (≈ 159 µM)
MIC [5, 29]: 64 µg/mL (≈ 159 µM)
MIC [6, 31]: > 256 µg/mL
MIC [7, 31]: > 256 µg/mL
MIC [8, 30]: 256 µg/mL (≈ 638 µM)
MIC [9, 31]: > 256 µg/mL
MIC [10, 31]: > 256 µg/mL

MIC [1, 31]: > 256 µg/mL
MIC [2, 31]: > 256 µg/mL
MIC [3, 31]: > 256 µg/mL
MIC [4, 28]: 8 µg/mL (≈ 15.5 µM)
MIC [5, 29]: 2 µg/mL (≈ 3.86 µM)
MIC [6, 31]: > 256 µg/mL
MIC [7, 31]: > 256 µg/mL
MIC [8, 30]: > 256 µg/mL
MIC [9, 31]: > 256 µg/mL
MIC [10, 31]: > 256 µg/mL
MIC [11]: > 64 µg/mL
susceptibility class (MIC) [11]: R
MIC [12]: > 64 µg/mL
susceptibility class (MIC) [12]: R
MIC [13]: > 64 µg/mL
susceptibility class (MIC) [13]: R
MIC [14]: 8 µg/mL (≈ 15.5 µM)
susceptibility class (MIC) [14]: S
MIC [15]: ≤ 4 µg/mL
susceptibility class (MIC) [15]: S
MIC [16]: > 64 µg/mL
susceptibility class (MIC) [16]: R
MIC [17]: > 64 µg/mL
susceptibility class (MIC) [17]: R
MIC [18]: > 64 µg/mL
susceptibility class (MIC) [18]: R
MIC [19]: > 64 µg/mL
susceptibility class (MIC) [19]: R
SMILES: CCN1CCN(C(=O)N[C@@H](C(=O)N[C@@H]2C(=O)N3[C@@H]2SC(C)(C)[C@@H]3C(=O)O)c2ccccc2)C(=O)C1=O [Piperacillin]
